# Laboratory results from paper PMC10671074, “Tumor Regression upon Intratumoral and Subcutaneous Dosing of the STING Agonist ALG-031048 in Mouse Efficacy Models” (International Journal of Molecular Sciences, 2023).
# pEC50: −log10 of the molar value.
# What was measured:
# CT26 tumors = assay: Re-challenge with CT26 of mice with complete tumor regression; format: in vivo, mouse
# Procedure: Ten naïve, age-matched female BALB/c mice were used as controls. […] Tumor growth was measured as described above.
# STING R232 [1] = molecular target: T1, STING R232 (Homo sapiens, UniProt Q86WV6, H232R); assay: HEK 293 STING R232 IRF reporter assay; format: cell-based; parameters: host or cells: 293T-Dual hSTING-R232 (HEK 293T derived); conditions: HEK 293 STING R232 cells, digitonin dosing buffer 30 min, 20 h; mean±standard deviation; read-out: Reporter Cell Assay EC50, STING R232 IRF
# T1 sequence (Q86WV6 whole entry H232R): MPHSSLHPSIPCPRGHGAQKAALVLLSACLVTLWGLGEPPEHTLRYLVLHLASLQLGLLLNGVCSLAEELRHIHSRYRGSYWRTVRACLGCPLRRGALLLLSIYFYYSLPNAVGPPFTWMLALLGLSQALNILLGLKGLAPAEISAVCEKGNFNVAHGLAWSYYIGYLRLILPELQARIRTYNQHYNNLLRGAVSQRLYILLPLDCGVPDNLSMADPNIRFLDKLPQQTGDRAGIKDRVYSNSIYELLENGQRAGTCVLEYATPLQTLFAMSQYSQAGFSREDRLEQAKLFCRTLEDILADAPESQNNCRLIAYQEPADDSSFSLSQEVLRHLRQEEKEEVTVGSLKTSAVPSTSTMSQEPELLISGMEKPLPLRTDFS
# Procedure: (§1) Assays were set up after allowing cells to adhere for 48 h. Compounds dissolved in water were serially diluted in dosing buffer containing 10 µg/mL of digitonin (MP Biomedicals, Solon, OH, USA). Media were aspirated from the cells, and 50 µL of buffer with compound was added in triplicate. […] An aliquot of 100 µL of CellTiter-Glo® (Promega, Madison, WI, USA) was added to the original plate still containing the cells, and luminescence was determined to measure viability. All readouts were measured on an Envision plate reader from Perkin Elmer. Data were analyzed using GraphPad™ Prism’s version 8.0 [Agonist] vs. response—variable slope (four parameters) model.
# [2] = system: phosphodiesterase I from Crotalus adamanteus venom (SVPD)
# [3] = Liver microsomal stability, mouse; format: in vitro ADME; conditions: pH 7.4, 0.5 mg/mL mouse liver microsomes, 37 °C, read-out: Liver Microsome t½, Mouse
# Procedure: The liver microsomal stability assay was carried out in 96-well microtiter plates. The test compounds at 5 µM and the reference compound (verapamil) at 1 µM final concentration were incubated separately at 37 °C with 0.5 mg/mL liver microsomes, with or without 1 mM NADPH in 100 mM potassium phosphate buffer, pH 7.4 with 3.3 mM MgCl2. […] At each of the time points (0, 15, 30, and 60 min), the enzymatic reaction was terminated with the addition of 150 μL of quenching solution (100% acetonitrile, 0.1% formic acid, and the internal standard), and subsequently the mixtures were vortexed vigorously for 20 min and centrifuged at 4000 rpm at 10 °C. The supernatants (80 µL) were transferred to a clean 96-well plate and analyzed via LC/MS/MS. The peak area ratios of each test compound over the internal standard were plotted against incubation time, and the t½ was calculated from the curve assuming first-order kinetics.
# STING R232 [4] = molecular target: T1, STING R232; assay: HEK 293 STING R232 IFN-β reporter assay; format: cell-based; parameters: host or cells: 293T-Dual hSTING-R232 (HEK 293T derived); conditions: HEK 293 STING R232 cells, digitonin dosing buffer 30 min, 20 h; mean±standard deviation; read-out: Reporter Cell Assay EC50, STING R232 IFN-β
# Procedure: as §1
# Plasma stability, mouse = format: in vitro ADME; conditions: 37 °C, read-out: Plasma t½, Mouse
# Procedure: The plasma stability assay was carried out on 96-well microtiter plates. The test compounds at 5 µM and the reference compound (propantheline) at 1 µM final concentration were incubated separately at 37 °C with mouse or human plasma for 0, 30, 60, and 240 min. At the end of each incubation time point, 300 μL of the quenching solution (50% acetonitrile, 50% methanol, and 0.05% formic acid) containing the internal standard was added to each well. The incubation plates were sealed, vortexed, and centrifuged at 4 °C for 15 min at 4000 rpm. The supernatant was transferred to fresh plates for LC/MS/MS analysis of the test compounds. The peak area ratios of each test compound over the internal standard were plotted against incubation time, and the t½ was calculated from the curve assuming first-order kinetics.
# plasma cytokines = assay: Plasma cytokine levels in Hepa1–6 tumor-bearing mice; format: in vivo, mouse; conditions: Hepa1–6, 6 hours after the first dose
# Procedure: Figure S6. A: Tumor regression in Hepa1‐6 tumor‐bearing […] mice upon IT treatment with three doses of 25 μg (light blue) or 100 μ g ALG‐031048 (dark blue), in comparison to treatment with 10 mg/kg anti‐PD‐1 antibody twice per week, 6 doses total (red). Vehicle‐treated animals are shown in black; shown are the mean tumor volumes ± standard deviation for each group of 10 animals.
# Irregular, crater‐shaped tumors prevented accurate tumor volume measurement between Days 8‐
# 25. Treatment started when tumors reached an average volume of 98 mm3. Statistical analysis pro‐ vided in Table S4. B: Tumor weight for each group at the end of the study. Statistical analysis pro‐ vided in Table S5. C: Plasma cytokine levels 6 hours after the first dose. Each symbol represents one animal as well as the mean of the group (n=10). Unpaired t‐test was used to compare different groups: all groups for al l cytokines were statistically significant from each other with P‐values of < 0.0001 with the following exceptions: vehicle vs anti‐PD‐1 were non‐significant (all cytokines); the […]
# [5] = system: primary human immature dendritic cells; assay: Cytokine release from immature dendritic cells; format: cell-based
# Procedure: The iMDDCs harvested on Day 5 (25,000 cells/well) after differentiation from normal human CD14+ CD16− monocytes were stimulated with STING agonists for 24–48 h. An aliquot of iMDDCs was also cultured in maturation media for 24–48 h and used as a control containing RPMI 1640, 10% FBS, 2 mM L-glutamine, and human TNF-α (6000 IU/mL, Miltenyi Biotec). The supernatant from the plate was frozen to assess cytokine production, and cells were analyzed via flow cytometry.
# CD11c+ monocyte‐derived dendritic cells. E: Live cells were selected based on live/dead staining
# and cell size. F: Dot plot of size SSC‐A versus SSC‐H for doublet exclusion, gating on singlet cells.
# G: Dot plot of CD209 vs CD11c to select CD209+CD11+ high monocyte‐derived dendritic cells.
# Figure S4. Increased release of cytokines from iDCs after stimulation for 24 hours with 50 μ M of the […]
structure (smiles),measurement,setting,value
CO[C@H]1[C@H]2OP(=O)(O)OC[C@@]34C[C@@H]3[C@@H](n3cnc5c(N)ncnc53)[C@H](O)[C@@H]4O[P@](=O)(S)OC[C@H]1O[C@H]2n1cnc2c(=O)[nH]c(N)nc21 [ALG-031048],Animals with complete tumor suppression (TV < 10 mm^3) after CT26 re-challenge,"CT26 tumors; Figure 5C, previously 100 μg IT × 3, CT26 left flank, 25 days, no further treatment",six
same,TV at last measurement of animals with delayed tumor growth after CT26 re-challenge,"CT26 tumors; Figure 5C, three animals",40–221 mm^3
same,TV at end of study of remaining re-challenged animal,"CT26 tumors; complete responders to 100 μg IT 3 × q3d, CT26 re-challenge",864 mm^3
same,Animals with tumor growth suppressed after CT26 re-challenge,"CT26 tumors; complete responders to 100 μg IT 3 × q3d, re-challenged on opposite flank, 40 days without additional treatment",8 of 9
same,pEC50,STING R232 [1],7.54
same,Stability after incubation with SVPD (in words),[2],stable
same,half-life at 5 µM,[3],> 8 h
same,pEC50,STING R232 [4],6.88
same,half-life at 5 µM,"Plasma stability, mouse",> 1 h
same,Plasma cytokines after IT administration,plasma cytokines,"increased plasma cytokines IFN-β1, IFN-γ, IL-6, MCP-1, MIP-1α, and TNF-α"
same,IFN-γ and IL-6 release from iDCs,[5]; 24 h time point,either no increase or only a minimal increase
same,Cytokine release from iDCs,"[5]; treatment for 24 h, 50 μM (Figure S4)","release of key cytokines IFN-β, IP-10, MIP-1α, MCP-1, and TNF-α"
